Experimental data taken from ChEMBL document CHEMBL1201862, “PubChem BioAssay data set” (2004).
Activity calls are given as the source filed them.

Key:
[1] = NIH-3T3 fibroblast cytotoxicity, dose response, cytotoxicity control, cell-based, fluorescence, Alamar Blue, secondary assay (AID 2327); type: functional;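 note: NIH-3T3 mouse fibroblasts cultured with fluconazole at 8 µg/mL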
[2] = biological target: ATP-dependent molecular chaperone HSP82 (Candida albicans (strain WO-1) (Yeast), UniProt C4YTQ8); assay: steroid-induced GRE reporter decrease in yeast – S. cerevisiae, luminescence, Hsp90 inhibitor project, dose response (AID 2400); type: functional, cell-based;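 note: beta-galactosidase luminescence from glucocorticoid response element reporter as proxy for Hsp90 function; inhibitor potency where signal loss means Hsp90 inhibition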
ATP-dependent molecular chaperone HSP82, sequence (C4YTQ8 whole entry): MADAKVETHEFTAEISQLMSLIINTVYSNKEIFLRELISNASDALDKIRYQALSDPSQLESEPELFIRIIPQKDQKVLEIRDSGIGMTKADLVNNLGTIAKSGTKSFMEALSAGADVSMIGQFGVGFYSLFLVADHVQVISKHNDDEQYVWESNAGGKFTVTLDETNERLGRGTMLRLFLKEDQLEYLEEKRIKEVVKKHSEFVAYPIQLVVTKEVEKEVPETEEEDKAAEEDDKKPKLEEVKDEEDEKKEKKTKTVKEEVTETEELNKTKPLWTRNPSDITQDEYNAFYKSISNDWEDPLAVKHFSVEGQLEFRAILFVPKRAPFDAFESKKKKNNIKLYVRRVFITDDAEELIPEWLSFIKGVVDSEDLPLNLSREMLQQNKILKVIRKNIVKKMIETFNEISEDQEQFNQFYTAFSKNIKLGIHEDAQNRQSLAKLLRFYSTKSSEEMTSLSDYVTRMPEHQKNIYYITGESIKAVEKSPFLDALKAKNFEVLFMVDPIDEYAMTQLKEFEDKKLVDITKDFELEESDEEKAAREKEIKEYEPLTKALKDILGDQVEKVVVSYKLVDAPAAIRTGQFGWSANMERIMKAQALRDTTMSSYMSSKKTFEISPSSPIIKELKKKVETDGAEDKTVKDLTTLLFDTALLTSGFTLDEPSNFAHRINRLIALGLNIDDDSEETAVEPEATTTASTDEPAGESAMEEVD

[3] = biological target: T1, Serine/threonine-protein phosphatase (Candida dubliniensis (strain CD36 / CBS 7987 / NCPF 3949 / NRRLY-17841) (Yeast), UniProt B9W6M3); assay: Fluorescence Cell-Based Secondary Assay to Identify Inhibitors of Calcineurin. [Related pubchem assays (depositor defined):AID1979, AID2007]; type: functional
T1 sequence (B9W6M3 whole entry): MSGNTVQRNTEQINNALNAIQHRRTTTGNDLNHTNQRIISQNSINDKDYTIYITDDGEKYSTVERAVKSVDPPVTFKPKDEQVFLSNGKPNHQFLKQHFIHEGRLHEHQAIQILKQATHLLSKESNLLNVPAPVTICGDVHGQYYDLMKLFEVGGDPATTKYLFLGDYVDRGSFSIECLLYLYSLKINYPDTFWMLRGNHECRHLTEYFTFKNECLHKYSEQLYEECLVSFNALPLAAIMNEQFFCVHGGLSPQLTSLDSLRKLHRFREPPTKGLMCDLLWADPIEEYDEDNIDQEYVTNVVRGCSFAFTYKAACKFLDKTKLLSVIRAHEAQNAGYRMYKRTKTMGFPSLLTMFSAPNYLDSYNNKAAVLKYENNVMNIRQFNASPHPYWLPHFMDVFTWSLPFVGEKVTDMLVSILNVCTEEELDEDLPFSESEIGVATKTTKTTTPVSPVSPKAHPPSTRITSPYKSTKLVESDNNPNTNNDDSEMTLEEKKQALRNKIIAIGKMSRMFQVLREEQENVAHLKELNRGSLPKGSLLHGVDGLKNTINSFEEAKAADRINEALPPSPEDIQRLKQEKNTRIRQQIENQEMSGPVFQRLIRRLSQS

[4] = biological target: T1, Serine/threonine-protein phosphatase; assay: blockers of CaCl2-induced CDRE-lacZ signaling – S. cerevisiae, luminescence, secondary, dose response (AID 2388); type: functional, cell-based;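 note: yeast reporter cells carrying a calcineurin-responsive lacZ construct stimulated with calcium chloride; luminescent beta-galactosidase reporter signal in whole cells rather than isolated phosphatase activity; potency for inhibition where a drop in reporter signal means calcineurin blockade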
[5] = fluconazole-exposed Candida albicans growth modulators – fluorescence, retest, confirmation (AID 2467); type: functional, cell-based
[6] = MIN6 cell viability loss – mouse insulinoma, cytotoxicity control, dose response (AID 2122); type: functional;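 note: confirmatory high-throughput counterscreen run to flag cytotoxic compounds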
Vero [7] = assay: cells; type: functional, cell-based; conditions: Chlorocebus sabaeus
Vero [8] = assay: cells; type: functional; conditions: Chlorocebus sabaeus
[9] = decrease of insulin promoter-GFP reporter – imaging, high-content screening, mouse beta cells (AID 1628); type: functional; conditions: MIN6
[10] = DRD fibroblast viability loss – cell-based, non-viral oncogenic, luminescence, dose response (AID 1934); type: functional; conditions: Homo sapiens
BJ [11] = assay: BJ-TERT fibroblast viability loss – cell-based, RAS-independent, luminescence, dose response (AID 1933); type: functional; conditions: Homo sapiens
[12] = biological target: Luciferin 4-monooxygenase (Photinus pyralis, UniProt P08659); assay: inhibition of purified Photinus pyralis luciferase – biochemical, luminescence, dose response (AID 1891)
Luciferin 4-monooxygenase, sequence (P08659 whole entry): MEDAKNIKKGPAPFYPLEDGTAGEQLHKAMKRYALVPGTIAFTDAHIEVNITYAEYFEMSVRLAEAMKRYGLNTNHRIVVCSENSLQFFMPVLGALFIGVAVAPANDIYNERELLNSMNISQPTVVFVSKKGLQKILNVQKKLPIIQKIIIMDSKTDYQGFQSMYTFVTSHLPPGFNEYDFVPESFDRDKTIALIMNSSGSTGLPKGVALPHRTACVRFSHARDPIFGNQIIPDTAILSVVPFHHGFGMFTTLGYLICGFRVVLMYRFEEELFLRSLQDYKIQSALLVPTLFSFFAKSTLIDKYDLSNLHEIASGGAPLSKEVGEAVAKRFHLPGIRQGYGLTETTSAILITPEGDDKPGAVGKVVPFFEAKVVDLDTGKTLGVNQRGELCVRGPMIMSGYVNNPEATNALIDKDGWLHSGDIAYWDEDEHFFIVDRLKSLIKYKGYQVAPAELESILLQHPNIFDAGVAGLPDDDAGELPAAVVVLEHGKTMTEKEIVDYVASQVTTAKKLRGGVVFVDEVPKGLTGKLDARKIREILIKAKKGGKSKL

BJ [13] = assay: BJ-TERT-LT-ST fibroblast viability loss – cell-based, RAS-independent, luminescence, dose response (AID 1935); type: functional; conditions: Homo sapiens;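 note: BJ fibroblasts immortalized with TERT plus LT and ST oncogenes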
[14] = Luminescence Cell-Based Dose Confirmation HTS to Identify Inhibitors of Platelet Dense Granule Release. [Related pubchem assays: 1663 (Primary HTS), 1678 (Summary of Project)]; type: functional
[15] = HEK-293T viability loss after treatment – luminescence, T-cell screen hits, cytotoxicity control for TCR NF-kB inhibitor project, dose response (AID 489026); type: functional, cell-based;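 note: cells exposed to compound about 14 hours before the viability readout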
BJ [16] = assay: cells; type: functional, cell-based; conditions: Homo sapiens
[17] = loss of viability in HepG2 cells – cell-based, CellTiter-Glo, cherry-picked, cytotoxicity control for Shn3 inhibitor project, dose response (AID 624134); type: functional
HEK293 [18] = assay: cells; type: functional, cell-based; conditions: Homo sapiens
[19] = biological target: T2, COUP transcription factor 2 (Homo sapiens, UniProt P24468); assay: Luminescence-based cell-based high throughput dose response assay to identify inhibitors of COUP-TFII (NR2F2).; type: functional;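 note: HEK293 cells transiently cotransfected with COUP-TFII expression vector and reporter; luciferase reporter luminescence driven by COUP-TFII from the pX2-168 reporter plasmid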
T2 sequence (P24468 whole entry): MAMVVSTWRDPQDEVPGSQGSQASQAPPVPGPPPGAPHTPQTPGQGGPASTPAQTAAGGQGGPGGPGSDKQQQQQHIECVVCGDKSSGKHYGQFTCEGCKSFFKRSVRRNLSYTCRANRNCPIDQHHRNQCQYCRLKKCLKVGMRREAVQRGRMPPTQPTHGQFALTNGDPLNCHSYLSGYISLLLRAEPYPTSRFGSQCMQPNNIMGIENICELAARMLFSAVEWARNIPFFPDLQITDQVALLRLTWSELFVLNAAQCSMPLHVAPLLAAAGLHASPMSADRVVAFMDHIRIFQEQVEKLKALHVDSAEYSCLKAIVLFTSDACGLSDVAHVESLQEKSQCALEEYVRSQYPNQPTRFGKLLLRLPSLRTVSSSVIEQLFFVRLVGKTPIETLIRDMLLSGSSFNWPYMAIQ

HEK293 [20] = assay: cells; type: functional, cell-based; conditions: Homo sapiens; remark: listed apart in the source
HEK293 [21] = assay: cells; type: functional, cell-based; conditions: Homo sapiens; remark: listed apart in the source
HEK293 [22] = assay: NOD2 signaling inhibitors in MDP-stimulated cells, cell-based, uHTS, luminescence (AID 2001); type: functional; conditions: Homo sapiens
[23] = biological target: Nucleotide-binding oligomerization domain-containing protein 2 (Homo sapiens, UniProt Q9HC29); assay: inhibition of NOD2-driven NF-kB reporter – cell-based, luminescence, uHTS, HEK293 (AID 1566); type: functional
Nucleotide-binding oligomerization domain-containing protein 2, sequence (Q9HC29 whole entry, the tested form may be a part): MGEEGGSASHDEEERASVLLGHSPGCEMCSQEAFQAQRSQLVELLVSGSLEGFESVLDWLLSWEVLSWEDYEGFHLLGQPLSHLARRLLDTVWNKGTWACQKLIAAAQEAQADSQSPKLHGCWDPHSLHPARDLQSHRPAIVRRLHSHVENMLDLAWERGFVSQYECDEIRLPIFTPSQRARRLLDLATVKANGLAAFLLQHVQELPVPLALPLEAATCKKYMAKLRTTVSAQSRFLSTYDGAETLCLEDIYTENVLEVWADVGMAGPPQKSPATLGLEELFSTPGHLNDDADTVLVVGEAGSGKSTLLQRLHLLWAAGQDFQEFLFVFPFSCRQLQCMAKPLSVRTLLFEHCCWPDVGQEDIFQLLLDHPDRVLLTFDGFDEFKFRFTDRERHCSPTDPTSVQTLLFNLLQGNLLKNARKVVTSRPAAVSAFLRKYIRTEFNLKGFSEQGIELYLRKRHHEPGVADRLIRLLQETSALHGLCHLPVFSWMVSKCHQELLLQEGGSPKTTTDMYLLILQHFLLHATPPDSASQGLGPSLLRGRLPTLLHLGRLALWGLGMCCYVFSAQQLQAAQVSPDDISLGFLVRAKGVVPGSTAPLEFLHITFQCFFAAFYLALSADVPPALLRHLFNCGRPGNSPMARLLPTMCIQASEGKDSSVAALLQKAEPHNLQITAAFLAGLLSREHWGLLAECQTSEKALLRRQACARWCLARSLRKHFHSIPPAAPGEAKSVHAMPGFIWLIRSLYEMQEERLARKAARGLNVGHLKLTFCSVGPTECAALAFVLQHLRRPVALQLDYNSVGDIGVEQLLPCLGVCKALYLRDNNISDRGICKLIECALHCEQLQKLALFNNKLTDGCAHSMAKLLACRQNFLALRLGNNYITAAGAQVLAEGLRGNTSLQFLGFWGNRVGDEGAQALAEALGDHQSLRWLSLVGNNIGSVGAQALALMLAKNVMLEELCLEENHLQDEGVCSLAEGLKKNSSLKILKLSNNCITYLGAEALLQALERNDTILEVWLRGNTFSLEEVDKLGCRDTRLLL

HEK293 [24] = assay: inhibition of NOD1-driven NF-kB reporter – cell-based, luminescence, uHTS, primary screen (AID 1578); type: functional; conditions: Homo sapiens
[25] = reduction of Shn3 3'UTR-driven luciferase in osteoblasts – cell-based, Clone20 osteoblasts, firefly luciferase, cherry-picked, dose response (AID 624132); type: functional;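 note: firefly luciferase luminescence from reporter carrying the Shn3 3'UTR in osteoblasts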
INS1 = assay: INS-1E survival protection against cytokine death – cell-based, luminescence, retest, dose response (AID 449756); type: functional; conditions: Rattus norvegicus;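 note: cell death triggered by IL-1 beta plus TNF-alpha plus IFN-gamma mixture; protective hits raise ATP signal compared with cytokine alone wells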
[26] = Shn3 3'UTR reporter signal decrease – cell-based, Clone20 osteoblasts, firefly luciferase, cherry-pick, set 2, Schnurri-3 inhibitor project, dose response (AID 720490); type: functional;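 note: actives lower the luminescence signal as inhibitors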
[27] = HIV-1 AD8 envelope cell-cell fusion blockers – cherry-pick, dose response (AID 652062); type: functional, cell-based;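 note: luciferase signal from cell-cell fusion driven by HIV-1 clade B AD8 Env; potency is for inhibitors of fusion seen as a drop in luminescence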
[28] = blockers of HIV-1 envelope-mediated cell-cell fusion – cherry-pick, dose response (AID 652057); type: functional, cell-based
[29] = blockers of HIV-1 ZM109 envelope-driven cell-cell fusion – HeLa effector, CEM target cells, luciferase, cherry-pick, dose response (AID 652058); type: functional, cell-based;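 note: luciferase signal from HIV-1 Env mediated cell-cell fusion of effector and target cells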

Which EC50 [1] does the source give for `Cc1ccc(Nc2nc(N)c([N+](=O)[O-])c(N3CCC(C)CC3)n2)cc1C` here?
The EC50 was > 150 µM (inactive).

What about the EC50 [2] of the same compound?
Its EC50 is 4.42 µM (active).

And the EC50 [3]?
Its EC50 is 9.17 µM (active).

And the EC50 [4]?
Its EC50 is > 180 µM (inactive).

What about the EC50 [5] of the same compound?
The EC50 was 0.207 µM (active).

Which results are given for `Cc1ccc(-n2ncc3c(SCc4cccnc4)ncnc32)c(C)c1`?
IC50 [6]: 1.09 µM (active); IC50 (Vero [7]): 21.8 µM (active); CC50 (Vero [8]): 20.9 µM (active); IC50 [9]: 1.77 µM (active)

Which results are given for `Cc1ccc(S(=O)(=O)Cc2ccc(C(=O)N3CCN(c4cccc(C)c4C)CC3)o2)cc1`?
EC50 [10]: 13.3 µM (inconclusive); EC50 (BJ [11]): 8.13 µM (inconclusive); EC50 [12]: 57.2 µM (active); EC50 (BJ [13]): 4.2 µM (active); EC50 [14]: > 112 µM (not active); IC50 [15]: > 80 µM (inactive); EC50 (BJ [16]): 18 µM (active)

For `Cc1cc(S(=O)(=O)NCc2ccncc2)c(C)cc1Br`, which AC50 [17] is on record?
The AC50 was 41.1 µM (active).

And the IC50 (HEK293 [18])?
Its IC50 is > 20 µM (inactive).

And the IC50 [19]?
Its IC50 is 6.41 µM (active).

And the IC50 (HEK293 [20])?
The IC50 was > 20 µM (inactive).

What about the IC50 (HEK293 [21]) of the same compound?
Its IC50 is 9.24 µM (active).

And the IC50 (HEK293 [22])?
Its IC50 is 17.9 µM (inactive).

What about the EC50 [23] of the same compound?
Its EC50 is 5.82 µM (active).

And the EC50 (HEK293 [24])?
The EC50 was 4.2 µM (active).

And the AC50 [25]?
The AC50 was 1.23 µM (active).

What about the AC50 (INS1) of the same compound?
The AC50 was 4.42 µM (active).

What about the AC50 [26] of the same compound?
Its AC50 is 1.02 µM (active).

Which AC50 [27] does the source give for `Clc1ccc2c(c1)C(C1=NCCN1)c1ccccc1CS2` (stereo unspecified) here?
The AC50 was 4.39 µM (active).

And the IC50 [15]?
The IC50 was > 80 µM (inactive).

What about the AC50 [28] of the same compound?
The AC50 was 1.48 µM (active).

And the AC50 [29]?
Its AC50 is 2.07 µM (active).
